Source: patent US20140142613A1, “INSTRUMENT FOR CAPTURING FREE THROMBI” (Toray Industries, Inc., priority 2011, published 2014)

System: citrated blood
Assay: Measurement of whole blood clotting time (Sonoclot, ACT ONSET value)
Parameters: species or system human
Protocol: In a cuvette (NON-ACTIVATED CLOTTING TEST KIT), 18 μL of physiological saline was placed, and 14.8 μL of Calcicol was added thereto, followed by further adding 342 μL of the citrated blood to the resulting mixture. The mixture was then subjected to measurement using a Sonoclot coagulation & Platelet Function Analyzer (IMI Corporation), and the obtained ACT ONSET value was regarded as the whole blood clotting time.

CC1CNc2c(cccc2S(=O)(=O)N[C@@H](CCCNC(=N)N)C(=O)N2CC[C@@H](C)C[C@@H]2C(=O)O)C1 (mixture of isomers) [argatroban, (2R,4R)-4-methyl-1-((2S)-2-{[(3RS)-3-methyl-1,2,3,4-tetrahydroquinolin-8-yl]sulfonyl}amino-5-guanidinopentanoyl)piperidine-2-carboxylic acid]
whole blood clotting time (2 μM argatroban solution instead of physiological saline): 531 s | whole blood clotting time (10 μM argatroban solution instead of physiological saline): 746 s | whole blood clotting time (20 μM argatroban solution instead of physiological saline): 849 s
